Experiment [1] deals with T1, hDvl1-PDZ (human Dvl1 PDZ domain) (Homo sapiens, UniProt O14640, C338A/W339T).
T1 construct: PDZ domain, residues 246–340
T1 sequence (O14640 246-340 C338A/W339T): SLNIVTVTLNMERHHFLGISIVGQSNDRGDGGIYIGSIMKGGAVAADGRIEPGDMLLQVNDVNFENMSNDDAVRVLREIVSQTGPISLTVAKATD
Briefly: NMR chemical shift perturbation at […] equivalents (averaged normalized shift). The experiment is classed as binding.

For experiment [2], the target named is T2, mZO1-PDZ1 (mouse ZO-1 first PDZ domain) (Mus musculus, UniProt P39447).
T2 construct: gene Tjp1
T2 sequence (P39447 18-110): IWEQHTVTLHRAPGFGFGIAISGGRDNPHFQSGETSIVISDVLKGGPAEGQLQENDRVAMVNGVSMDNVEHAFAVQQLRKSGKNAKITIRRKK
Briefly: NMR chemical shift perturbation (1H-15N HSQC).

Turning to `CC(=O)C(=NNc1cccc(S(=O)(=O)Nc2ccccc2C(=O)O)c1)C(=O)c1ccccc1` [NPL-3009], the Δδave/ppm in experiment [1] is recorded as 0.044 ppm. Consider `O=C(Cc1ccccc1)Nc1cccc(C(=O)Nc2ccccc2C(=O)O)c1` [CalBioChem-322338], for which the “NMR chemical shift perturbation (1H-15N HSQC)” value in experiment [2] is reported as “residues surrounding the canonical binding site of mZO1-PDZ1 showed substantial CSP upon CalBioChem-322338”.

The values above are taken from article PMC6134994, “Discovery of Potent Disheveled/Dvl Inhibitors Using Virtual Screening Optimized With NMR-Based Docking Performance Index” (Frontiers in Pharmacology, 2018).
